Biological target: T1, USP8 (Homo sapiens, UniProt P40818)
T1 construct: His tag (pFastBac-HT vector); made in house; host or cells: Sf9 or High Five insect cells, baculovirus
T1 sequence (P40818 1-1118): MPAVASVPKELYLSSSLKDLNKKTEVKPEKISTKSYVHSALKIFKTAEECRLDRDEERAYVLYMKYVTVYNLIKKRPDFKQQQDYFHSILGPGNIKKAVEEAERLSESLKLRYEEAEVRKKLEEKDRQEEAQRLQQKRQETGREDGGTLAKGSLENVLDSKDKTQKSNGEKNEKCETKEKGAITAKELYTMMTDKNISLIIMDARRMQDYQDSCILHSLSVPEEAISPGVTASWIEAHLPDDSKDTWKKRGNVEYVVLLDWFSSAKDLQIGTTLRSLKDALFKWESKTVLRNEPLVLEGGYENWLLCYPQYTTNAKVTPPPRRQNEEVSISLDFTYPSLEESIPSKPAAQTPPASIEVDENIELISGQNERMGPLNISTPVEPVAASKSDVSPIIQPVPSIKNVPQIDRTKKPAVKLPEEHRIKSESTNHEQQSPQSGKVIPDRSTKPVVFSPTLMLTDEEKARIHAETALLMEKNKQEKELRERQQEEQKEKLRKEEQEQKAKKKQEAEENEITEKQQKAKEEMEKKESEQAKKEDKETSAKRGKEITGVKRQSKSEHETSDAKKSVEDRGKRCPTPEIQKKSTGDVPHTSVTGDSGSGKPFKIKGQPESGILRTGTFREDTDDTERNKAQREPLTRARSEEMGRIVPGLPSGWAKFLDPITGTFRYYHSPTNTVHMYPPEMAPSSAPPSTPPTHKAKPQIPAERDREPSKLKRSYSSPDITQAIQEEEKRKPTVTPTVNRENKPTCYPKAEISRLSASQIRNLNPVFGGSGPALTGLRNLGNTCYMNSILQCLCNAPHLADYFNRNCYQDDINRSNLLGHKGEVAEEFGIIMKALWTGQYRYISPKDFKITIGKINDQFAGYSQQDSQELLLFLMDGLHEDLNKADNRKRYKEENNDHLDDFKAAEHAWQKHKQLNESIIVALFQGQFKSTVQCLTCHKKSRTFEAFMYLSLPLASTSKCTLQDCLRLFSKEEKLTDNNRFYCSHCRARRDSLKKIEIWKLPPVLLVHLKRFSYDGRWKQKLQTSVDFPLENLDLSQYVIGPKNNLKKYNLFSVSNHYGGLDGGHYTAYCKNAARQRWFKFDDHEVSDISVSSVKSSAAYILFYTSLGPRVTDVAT
Assay: USP8 activity assay (Ub-AMC)
Format: biochemical
Conditions: 300 nM Ub-AMC, 1.36 nM enzyme
Text: The cDNA encoding USP8 was obtained by PCR amplification from placenta mRNA. USP8 cDNA was subcloned by PCR into a baculovirus expression vector (pFastBac-HT; Invitrogen). A cDNA encoding a mutated USP8 was generated by mutagenic PCR. The corresponding protein encodes a cysteine to alanine substitution at residue 786. The sequences were ascertained by sequencing of the entire open reading frame. Bacmids encoding USP8 were generated following DH10bac transposition. The corresponding bacmids were transfected into insect cells (Sf9). Viruses were recovered from culture supernatant and amplified twice. Insect cells (Sf9 or High Five; Invitrogen) were infected for 72 hours. Total cell lysates were harvested and lyzed in lysis buffer (Tris HCl 50 mM pH 7.6; 0.75% NP40; 500 mM NaCl; 10% glycerol; 1 mM DTT; 10 mM imidazole; Protease Inhibitor Cocktail; AEBSF 20 μg·ml^−1; Aprotinin 10 μg·ml^−1). Proteins were affinity purified on metal affinity resins (Talon Metal affinity resin; BD Biosciences). Bound materials were extensively washed in wash buffer (50 mM Sodium Phosphate pH 7.0; 300 mM NaCl; 10 mM imidazole; 0.5% Triton X-100; 10% glycerol) and eluted from the resin in 250 mM imidazole-containing wash buffer. Proteins were dialyzed in dialysis buffer (Tris HCl pH 7.6 20 mM; NaCl 200 mM; DTT 1 mM; EDTA 1 mM; 10% Glycerol). Proteins purifications were analyzed on 4-12% NuPAGE (Invitrogen).
USP8 was diluted in USP buffer (50 mM Tris HCl; 0.5 mM EDTA; 5 mM DTT; 0.01% Triton X-100; Bovine Serum Albumin 0.05 mg·ml^−1 pH 8.8). Compounds stocks (100 mM) were stored at −20° C. in DMSO. Compounds were tested at different concentrations: from […] to 91 nM.
Reactions were performed as duplicates in Black 384 well plates (small volume microplates; Greiner; 10 μl final reaction volume). The substrate concentration for USP8 was 300 nM Ub-AMC (Boston Biochem). The concentration of the enzyme (USP8) in specificity assays was 1.36 nM. The concentrations were determined in order to perform specificity assays under initial velocities at fixed substrate concentration. Compounds were pre-incubated with enzymes for 30 minutes at 25° C. Reactions were initiated by addition of substrate to the plates containing the enzymes (+/−compounds) diluted in assay buffer. Reactions were incubated for 60 minutes at 37° C. Reactions were stopped by adding acetic acid (100 mM final). Readings were performed on a Pherastar Fluorescent Reader (BMG). λ Emission 380 nm: λ Excitation=460 nm. Data (mean values+/−standard deviation) were analyzed as % of control (no compound) and plotted as percentage versus the Log of the compound concentration using GraphPad (Prism). Data were fitted to a sigmoidal model (variable slope).

SMILES	IC50
CCN(CC)CCNC(=O)c1ccc2c(Cl)c3c(nc2c1)CCCC3 [Example 7, 9-Chloro-5,6,7,8-tetrahydro-acridine-3-carboxylic acid (2-diethylamino-ethyl)-amide]	> 200 µM
CC1CCCC(C)N1CCCNC(=O)c1ccc2c(Cl)c3c(nc2c1)CCCC3 (stereo not drawn) [Example 9, 9-Chloro-5,6,7,8-tetrahydro-acridine-3-carboxylic acid [3-(2,6-dimethyl-piperidin-1-yl)-propyl]-amide]	> 200 µM
CCCN1CCN(CCCNC(=O)c2ccc3c(Cl)c4c(nc3c2)CCCC4)CC1 [Example 13, 9-Chloro-5,6,7,8-tetrahydro-acridine-3-carboxylic acid [3-(4-propyl-piperazin-1-yl)-propyl]-amide]	> 200 µM
CCN(CCCNC(=O)c1ccc2c(Cl)c3c(nc2c1)CCCC3)Cc1ccccc1 [Example 5, 9-Chloro-5,6,7,8-tetrahydro-acridine-3-carboxylic acid [3-(benzyl-ethyl-amino)-propyl]-amide]	> 200 µM
CCCCN(CC)CCNC(=O)c1ccc2c(Cl)c3c(nc2c1)CCCC3 [Example 4, 9-Chloro-5,6,7,8-tetrahydro-acridine-3-carboxylic acid [2-(butyl-ethyl-amino)-ethyl]-amide]	> 200 µM
CCCN(CCC)CCCNC(=O)c1ccc2c(Cl)c3c(nc2c1)CCCC3 [Example 6, 9-Chloro-5,6,7,8-tetrahydro-acridine-3-carboxylic acid (3-dipropylamino-propyl)-amide]	> 200 µM
CCN(CC)CCCNC(=O)c1ccc2c(Cl)c3c(nc2c1)CCCC3 [Example 10, 9-Chloro-5,6,7,8-tetrahydro-acridine-3-carboxylic acid (3-diethylamino-propyl)-amide]	> 200 µM
CCCN(CCC)CCNC(=O)c1ccc2c(Cl)c3c(nc2c1)CCCC3 [Example 3, 9-Chloro-5,6,7,8-tetrahydro-acridine-3-carboxylic acid (2-dipropylamino-ethyl)-amide]	> 200 µM
Cc1cccc(CN2CCC(CNC(=O)c3ccc4c(Cl)c5c(nc4c3)CCCC5)CC2)c1 [Example 1, 9-Chloro-5,6,7,8-tetrahydro-acridine-3-carboxylic acid [1-(3-methyl-benzyl)-piperidin-4-ylmethyl]-amide]	> 200 µM
CN(CCCNC(=O)c1ccc2c(Cl)c3c(nc2c1)CCCC3)Cc1ccccc1 [Example 14, 9-Chloro-5,6,7,8-tetrahydro-acridine-3-carboxylic acid [3-(benzyl-methyl-amino)-propyl]-amide]	> 200 µM

More lines, now with the values ahead:

IC50	SMILES
> 200 µM	CN1CCN(CCCNC(=O)c2ccc3c(Cl)c4c(nc3c2)CCCC4)CC1 [Example 15, 9-Chloro-5,6,7,8-tetrahydro-acridine-3-carboxylic acid [3-(4-methyl-piperazin-1-yl)-propyl]-amide]
> 200 µM	CN(C)CCNC(=O)c1ccc2c(Cl)c3c(nc2c1)CCCC3 [Example 11, 9-Chloro-5,6,7,8-tetrahydro-acridine-3-carboxylic acid (2-dimethylamino-ethyl)-amide]
> 200 µM	O=C(c1ccc2c(Cl)c3c(nc2c1)CCCC3)N1CCC(N2CCCCC2)CC1 [Example 16, [1,4′]Bipiperidinyl-1′-yl-(9-chloro-5,6,7,8-tetrahydro-acridin-3-yl)-methanone]
> 200 µM	O=C(NCCCN1CCCC1)c1ccc2c(Cl)c3c(nc2c1)CCCC3 [Example 8, 9-Chloro-5,6,7,8-tetrahydro-acridine-3-carboxylic acid (3-pyrrolidin-1-yl-propyl)-amide]
> 200 µM	O=C(c1ccc2c(Cl)c3c(nc2c1)CCCC3)N1CCCCCC1 [Example 12, Azepan-1-yl-(9-chloro-5,6,7,8-tetrahydro-acridin-3-yl)-methanone]

Source: US20110177105A1, “Novel Selective Inhibitors of Ubiquitin Specific Protease 7, the Pharmaceutical Compositions Thereof and Their Therapeutic Applications” (priority 2010, published 2011)
